Assays:
[1] = target: kinase panel containing either 386 or 392 distinct kinases; test: Kinase selectivity score S10 from competition binding panel; settings: compounds at 10 μM; 386 or 392 distinct kinases
Method: Competition binding assays used herein were developed, validated and performed as described in Fabian et al., Nature Biotechnology 2005, 23, 329-336. Kinases were produced as fusions to T7 phage (See, Fabian et al. or WO04/015142) or alternatively, the kinases were expressed in HEK-293 cells and subsequently tagged with DNA for PCR detection (See, WO08/005310). For the binding assays, streptavidin-coated magnetic beads were treated with biotinylated affinity ligands for 30 min at room temperature to generate affinity resins. The liganded beads were blocked with excess biotin and washed with blocking buffer (SeaBlock (Pierce), 1% BSA, 0.05% Tween 20, 1 mM DTT) to remove unbound ligand and to reduce non-specific binding. Binding reactions were assembled by combining kinase, liganded affinity beads, and test compounds in 1× binding buffer (20% SeaBlock, 0.17×PBS, 0.05% Tween 20, 6 mM DTT). Test compounds were prepared as 100× stocks in DMSO and diluted into the aqueous environment. Kds were determined using an eleven point threefold serial dilutions. DMSO or control compounds were was added to control assays lacking a test compound. Primary screen assays were performed in polypropylene 384-well plates in a final volume of 20-40 μL, while Kd determinations were performed in polystyrene 96-well plates in a final volume of 135 μL. The assay plates were incubated at room temperature with shaking for 1 hour to allow the binding reactions to reach equilibrium, and the affinity beads were washed extensively with wash buffer (1×PBS, 0.05% Tween 20) to remove unbound protein. The beads were then resuspended in elution buffer (1×PBS, 0.05% Tween […] non-biotinylated affinity ligand) and incubated at room temperature with shaking for 30 min. The kinase concentration in the eluates was measured by quantitative PCR.
A selectivity score (S10) is a quantitative measure of selectivity of a compound against a panel of kinases. An S10 was calculated for a compound by dividing the number of kinases found to have a percent of control (DMSO) less than 10 by the total number of distinct kinases tested (excluding mutant variants). Percent of control (POC) is calculated by subtracting the signal of the control compound (POC=0) from the signal of the test compound and dividing the outcome by the signal of DMSO (POC=100) minus the signal of the control compound. For the compounds disclosed herein, S10 scores were obtained by testing the compounds at 10 μM concentration in a kinase panel containing either 386 or 392 distinct kinases.

M-NFS-60 cells = test: M-NFS-60 cell proliferation assay (Alamar Blue); type: cell-based, mouse; settings: Mus musculus; 72 hours incubation, M-CSF 20 ng/mL; read-out: CSF1R M-NFS-60 CTB:IC50
Procedure, shortened: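 Mouse M-NFS-60 cells growing on 20 ng/mL M-CSF in RPMI/10% FBS were exposed to compounds (9 half-log concentrations, 0.5% DMSO) for 72 h at 37 °C. Viability read by Alamar Blue fluorescence (ex 560/em 590 nm, 3 h). IC50 = 50% proliferation inhibition versus control, mean of duplicates.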

CSF1R = CSF1R (Homo sapiens, UniProt P07333); test: Competition binding assay, CSF1R Kd; parameters: made in house
Chain of CSF1R (P07333 20-972): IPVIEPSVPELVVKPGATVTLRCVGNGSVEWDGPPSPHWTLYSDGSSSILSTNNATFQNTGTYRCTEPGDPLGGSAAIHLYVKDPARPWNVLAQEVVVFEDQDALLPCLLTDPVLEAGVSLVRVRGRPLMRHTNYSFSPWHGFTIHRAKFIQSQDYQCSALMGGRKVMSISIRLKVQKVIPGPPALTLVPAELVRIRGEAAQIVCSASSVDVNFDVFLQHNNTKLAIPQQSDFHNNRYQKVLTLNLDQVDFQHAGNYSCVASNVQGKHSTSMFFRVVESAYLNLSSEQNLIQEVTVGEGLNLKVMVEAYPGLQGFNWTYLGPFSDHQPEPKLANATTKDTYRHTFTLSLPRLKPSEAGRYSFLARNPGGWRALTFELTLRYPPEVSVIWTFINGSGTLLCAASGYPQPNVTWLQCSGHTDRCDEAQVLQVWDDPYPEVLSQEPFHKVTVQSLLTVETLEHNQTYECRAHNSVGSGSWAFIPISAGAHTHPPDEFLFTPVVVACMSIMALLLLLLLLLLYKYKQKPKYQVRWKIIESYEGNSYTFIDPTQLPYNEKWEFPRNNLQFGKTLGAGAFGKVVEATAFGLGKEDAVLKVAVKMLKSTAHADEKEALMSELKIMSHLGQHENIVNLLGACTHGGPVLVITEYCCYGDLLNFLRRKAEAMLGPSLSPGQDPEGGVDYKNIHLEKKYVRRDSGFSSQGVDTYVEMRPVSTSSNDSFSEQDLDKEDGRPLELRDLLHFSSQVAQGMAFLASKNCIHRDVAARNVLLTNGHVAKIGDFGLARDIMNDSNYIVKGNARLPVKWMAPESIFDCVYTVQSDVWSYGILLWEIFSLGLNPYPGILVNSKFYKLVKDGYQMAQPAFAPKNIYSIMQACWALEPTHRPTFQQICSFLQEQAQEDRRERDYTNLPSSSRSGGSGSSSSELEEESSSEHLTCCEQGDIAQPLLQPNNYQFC
Procedure, shortened: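 Kd values came from eleven-point threefold dilutions of compound, measured by qPCR of kinase eluted from affinity-ligand beads after 1 h equilibrium binding at room temperature. Kinase was either T7-phage fused or HEK-293-expressed with a DNA tag.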

| Compound | Kinase specificity S(10) [1] | Kd (CSF1R) | IC50 (M-NFS-60 cells) |
| --- | --- | --- | --- |
| O=C1CCCC[C@H]1Nc1nc2ccc(Cn3cnc4cccnc43)cc2s1 [Example 54, (R)-2-((6-((3H-imidazo[4,5-b]pyridin-3-yl)methyl)benzo[d]thiazol-2-yl)amino)cyclohexanone] | A (A≤0.01) | 20 to 50 nM | 50 to 400 nM |
| O[C@@H]1CCCC[C@H]1Nc1nc2ccc(Cn3cnc4cccnc43)cc2o1 [Example 56, (1R,2R)-2-((6-((3H-imidazo[4,5-b]pyridin-3-yl)methyl)benzo[d]oxazol-2-yl)amino)cyclohexanol] | C (C>0.02) | 5 to 20 nM | 50 to 400 nM |
| O[C@@H]1Cc2ccccc2[C@H]1Nc1nc2ccc(Cn3cnc4cccnc43)cc2o1 [Example 57, (1R,2R)-1-((6-((3H-imidazo[4,5-b]pyridin-3-yl)methyl)benzo[d]oxazol-2-yl)amino)-2,3-dihydro-1H-inden-2-ol] | C (C>0.02) | ≤ 5 nM | 50 to 400 nM |
| O[C@@H]1CCCC[C@H]1Nc1nc2ccc(Cn3cnc4cc(Br)cnc43)cc2o1 [Example 61, (1R,2R)-2-((6-((6-bromo-3H-imidazo[4,5-b]pyridin-3-yl)methyl)benzo[d]oxazol-2-yl)amino)cyclohexanol] | C (C>0.02) | 5 to 20 nM | ≤ 50 nM |
| OC[C@@H](Nc1nc2ccc(Cn3cnc4cccnc43)cc2s1)C1CCCCC1 [Example 63, (S)-2-((6-((3H-imidazo[4,5-b]pyridin-3-yl)methyl)benzo[d]thiazol-2-yl)amino)-2-cyclohexylethanol] | C (C>0.02) | 5 to 20 nM | 50 to 400 nM |
| OC[C@H](Nc1nc2ccc(Cn3cnc4cccnc43)cc2s1)C1CCCCC1 [Example 64, (R)-2-((6-((3H-imidazo[4,5-b]pyridin-3-yl)methyl)benzo[d]thiazol-2-yl)amino)-2-cyclohexylethanol] | C (C>0.02) | 5 to 20 nM | 50 to 400 nM |
| CS(=O)(=O)c1cnc2c(c1)ncn2Cc1ccc2nc(N[C@@H]3CCCC[C@H]3O)sc2c1 [Example 74, (1R,2R)-2-((6-((6-(methylsulfonyl)-3H-imidazo[4,5-b]pyridin-3-yl)methyl)benzo[d]thiazol-2-yl)amino)cyclohexanol] | B (0.01<B≤0.02) | 5 to 20 nM | 50 to 400 nM |
| OC1(CNc2nc3ccc(Cn4cnc5cccnc54)cc3s2)CCCCC1 [Example 75, 1-(((6-((3H-imidazo[4,5-b]pyridin-3-yl)methyl)benzo[d]thiazol-2-yl)amino)methyl)cyclohexanol] | C (C>0.02) | 5 to 20 nM | 50 to 400 nM |
| OCC1(CNc2nc3ccc(Cn4cnc5cccnc54)cc3s2)CCCCC1 [Example 76, (1-(((6-((3H-imidazo[4,5-b]pyridin-3-yl)methyl)benzo[d]thiazol-2-yl)amino)methyl)cyclohexyl)methanol] | C (C>0.02) | ≤ 5 nM | 50 to 400 nM |
| Cn1cc(-c2cn(Cc3ccc4nc(N[C@@H]5CCCC[C@H]5O)oc4c3)cn2)cn1 [Example 77, (1R,2R)-2-((6-((4-(1-methyl-1H-pyrazol-4-yl)-1H-imidazol-1-yl)methyl)benzo[d]oxazol-2-yl)amino)cyclohexanol] | A (A≤0.01) | 5 to 20 nM | 400 to 1500 nM |
| O[C@@H]1Cc2ccccc2[C@H]1Nc1nc2ccc(Cn3cnc4ccc(Br)nc43)cc2s1 [Example 80, (1R,2R)-1-((6-((5-bromo-3H-imidazo[4,5-b]pyridin-3-yl)methyl)benzo[d]thiazol-2-yl)amino)-2,3-dihydro-1H-inden-2-ol] | B (0.01<B≤0.02) | 5 to 20 nM | ≤ 50 nM |
| OCc1cnc2c(c1)ncn2Cc1ccc2nc(N[C@@H]3CCCC[C@H]3O)sc2c1 [Example 84, (1R,2R)-2-((6-((6-(hydroxymethyl)-3H-imidazo[4,5-b]pyridin-3-yl)methyl)benzo[d]thiazol-2-yl)amino)cyclohexanol] | A (A≤0.01) | 5 to 20 nM | 50 to 400 nM |
| CSCc1cnc2c(c1)ncn2Cc1ccc2nc(N[C@@H]3CCCC[C@H]3O)sc2c1 [Example 86, (1R,2R)-2-((6-((6-((methylthio)methyl)-3H-imidazo[4,5-b]pyridin-3-yl)methyl)benzo[d]thiazol-2-yl)amino)cyclohexanol] | C (C>0.02) | 5 to 20 nM | 50 to 400 nM |

Continued, in another order:

| Kinase specificity S(10) [1] | Kd (CSF1R) | Compound | IC50 (M-NFS-60 cells) |
| --- | --- | --- | --- |
| B (0.01<B≤0.02) | 5 to 20 nM | O[C@@H]1CCCC[C@H]1Nc1nc2ccc(Cn3cnc4cc(Cl)cnc43)cc2s1 [Example 55, (1R,2R)-2-((6-((6-chloro-3H-imidazo[4,5-b]pyridin-3-yl)methyl)benzo[d]thiazol-2-yl)amino)cyclohexanol] | ≤ 50 nM |
| B (0.01<B≤0.02) | ≤ 5 nM | ON=C1CCCC[C@H]1Nc1nc2ccc(Cn3cnc4cccnc43)cc2s1 [Example 58, (R)-2-((6-((3H-imidazo[4,5-b]pyridin-3-yl)methyl)benzo[d]thiazol-2-yl)amino)cyclohexanone oxime] | 50 to 400 nM |
| C (C>0.02) | ≤ 5 nM | O[C@@H]1Cc2ccccc2[C@H]1Nc1nc2ccc(Cn3cnc4cc(Br)cnc43)cc2o1 [Example 62, (1R,2R)-1-((6-((6-bromo-3H-imidazo[4,5-b]pyridin-3-yl)methyl)benzo[d]oxazol-2-yl)amino)-2,3-dihydro-1H-inden-2-ol] | ≤ 50 nM |
| B (0.01<B≤0.02) | 5 to 20 nM | COc1cc2c(cc1C#N)ncn2Cc1ccc2nc(N[C@@H]3CCCC[C@H]3O)sc2c1 [Example 65, 1-((2-(((1R,2R)-2-hydroxycyclohexyl)amino)benzo[d]thiazol-6-yl)methyl)-6-methoxy-1H-benzo[d]imidazole-5-carbonitrile] | 50 to 400 nM |
| A (A≤0.01) | 5 to 20 nM | OC[C@@H]1CCCC[C@H]1Nc1nc2ccc(Cn3cnc4cccnc43)cc2s1 [Example 66, ((1R,2R)-2-((6-((3H-imidazo[4,5-b]pyridin-3-yl)methyl)benzo[d]thiazol-2-yl)amino)cyclohexyl)methanol] | 400 to 1500 nM |
| A (A≤0.01) | 5 to 20 nM | CC(=O)c1cnc2c(c1)ncn2Cc1ccc2nc(N[C@@H]3CCCC[C@H]3O)sc2c1 [Example 73, 1-(3-((2-(((1R,2R)-2-hydroxycyclohexyl)amino)benzo[d]thiazol-6-yl)methyl)-3H-imidazo[4,5-b]pyridin-6-yl)ethanone] | 50 to 400 nM |
| B (0.01<B≤0.02) | 20 to 50 nM | O=C(O)c1cnc2c(c1)ncn2Cc1ccc2nc(N[C@@H]3CCCC[C@H]3O)sc2c1 [Example 81, 3-((2-(((1R,2R)-2-hydroxycyclohexyl)amino)benzo[d]thiazol-6-yl)methyl)-3H-imidazo[4,5-b]pyridine-6-carboxylic acid] | > 1500 nM |
| A (A≤0.01) | 5 to 20 nM | O[C@@H]1CCCC[C@H]1Nc1nc2ccc(Cn3cnc4cc(CN5CCOCC5)cnc43)cc2s1 [Example 82, (1R,2R)-2-((6-((6-(morpholinomethyl)-3H-imidazo[4,5-b]pyridin-3-yl)methyl)benzo[d]thiazol-2-yl)amino)cyclohexanol] | 400 to 1500 nM |
| B (0.01<B≤0.02) | ≤ 5 nM | CSc1cnc2c(c1)ncn2Cc1ccc2nc(N[C@@H]3CCCC[C@H]3O)sc2c1 [Example 85, (1R,2R)-2-((6-((6-(methylthio)-3H-imidazo[4,5-b]pyridin-3-yl)methyl)benzo[d]thiazol-2-yl)amino)cyclohexanol] | ≤ 50 nM |
